Columns and labels:
Type in all cases: in vivo
kochia (Kochia scoparia) [1] = test: Test A postemergence, kochia; details: 0 to 100 scale
Outline: (§1)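 Using a solvent/surfactant formulation, test chemicals were sprayed onto freshly seeded soil or onto 2–10 cm seedlings at the one- to two-leaf stage. Visual injury ratings on a 0–100 scale were made about 10 d later in the greenhouse.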

[2] = system: barnyardgrass (Echinochloa crus-galli); test: Test A preemergence, barnyardgrass; details: 0 to 100 scale
Outline: as §1

[3] = system: foxtail, giant (Setaria faberii); test: Test A postemergence, giant foxtail; details: 0 to 100 scale
Outline: as §1

corn (Zea mays) = test: Test A postemergence, corn; details: 0 to 100 scale
Outline: as §1

kochia (Kochia scoparia) [4] = test: Test A preemergence, kochia; details: 0 to 100 scale
Outline: as §1

[5] = system: ragweed (common ragweed, Ambrosia elatior); test: Test A postemergence, ragweed; details: 0 to 100 scale
Outline: as §1

[6] = system: ducksalad (Heteranthera limosa); test: Test B flooded paddy test, ducksalad; details: Flood, 250 g ai/ha, applied to paddy water, 2-leaf stage, visual evaluation after 13 to 15 d
Outline: (§2)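 Pots flooded to 3 cm above the soil when treated, with test compound added straight to the water and the flood maintained. Treated plants were at the 2-leaf stage and stayed 13–15 d in greenhouse. Response versus untreated controls scored visually from 0 (no effect) to 100 (complete control).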

[7] = system: pigweed (Amaranthus retroflexus); test: Test A preemergence, pigweed; details: 0 to 100 scale
Outline: as §1

[8] = system: ryegrass, Italian (Lolium multiflorum); test: Test A postemergence, Italian ryegrass; details: 0 to 100 scale
Outline: as §1

rice (Oryza sativa) = test: Test B flooded paddy test, rice; details: Flood, 250 g ai/ha, applied to paddy water, 2-leaf stage, visual evaluation after 13 to 15 d
Outline: as §2

[9] = system: sedge, umbrella (small-flower umbrella sedge, Cyperus difformis); test: Test B flooded paddy test, umbrella sedge; details: Flood, 250 g ai/ha, applied to paddy water, 2-leaf stage, visual evaluation after 13 to 15 d
Outline: as §2

[10] = system: pigweed (Amaranthus retroflexus); test: Test A postemergence, pigweed; details: 0 to 100 scale
Outline: as §1

[11] = system: blackgrass (Alopecurus myosuroides); test: Test A postemergence, blackgrass; details: 0 to 100 scale
Outline: as §1

[12] = system: barnyardgrass (Echinochloa crus-galli); test: Test B flooded paddy test, barnyardgrass; details: Flood, 250 g ai/ha, applied to paddy water, 2-leaf stage, visual evaluation after 13 to 15 d
Outline: as §2

[13] = system: barnyardgrass (Echinochloa crus-galli); test: Test A postemergence, barnyardgrass; details: 0 to 100 scale
Outline: as §1

[14] = system: ryegrass, Italian (Lolium multiflorum); test: Test A preemergence, Italian ryegrass; details: 0 to 100 scale
Outline: as §1

[15] = system: galium (catchweed bedstraw, Galium aparine); test: Test A postemergence, galium; details: 0 to 100 scale
Outline: as §1

[16] = system: wheat (Triticum aestivum); test: Test A postemergence, wheat; details: 0 to 100 scale
Outline: as §1

[17] = system: ragweed (common ragweed, Ambrosia elatior); test: Test A preemergence, ragweed; details: 0 to 100 scale
Outline: as §1

[18] = system: foxtail, giant (Setaria faberii); test: Test A preemergence, giant foxtail; details: 0 to 100 scale
Outline: as §1

C[C@@H](Nc1ncc(C(F)(F)F)c(N)n1)c1cc2ccccc2s1 [Compound 4, N2-[(1R)-1-benzo[b]thien-2-ylethyl]-5-(trifluoromethyl)-2,4-pyrimidinediamine]
70%: pest or weed control at 500 g/ha ([3]; Setaria faberi, post-emergence, 240 h, 500 g ai/ha, read-out: Plant response rating, Foxtail, Giant)
30%: pest or weed control at 125 g/ha ([3]; Setaria faberi, post-emergence, 240 h, 125 g ai/ha, read-out: Plant response rating, Foxtail, Giant) | Corn plant response rating (crop injury, 0 = no effect, 100 = complete kill) at 500 g/ha (corn (Zea mays); Zea mays, post-emergence, 240 h, 500 g ai/ha)
45%: pest or weed control at 250 g/ha ([6]; Heteranthera limosa, 360 h, read-out: Plant response rating, Ducksalad (0 to 100 scale, 0 is no effect, 100 is complete control))
90: Plant response rating, Barnyardgrass ([2]; 125 g ai/ha) | Plant response rating, Ryegrass, Italian ([14]; 500 g ai/ha) | Plant response rating, Foxtail, Giant ([18]; 125 g ai/ha)
80%: pest or weed control at 125 g/ha ([5]; Ambrosia artemisiifolia, post-emergence, 240 h, 125 g ai/ha, read-out: Plant response rating, Ragweed) | pest or weed control at 125 g/ha ([15]; Galium, post-emergence, 240 h, 125 g ai/ha, read-out: Plant response rating, Galium) | pest or weed control at 500 g/ha ([15]; Galium, post-emergence, 240 h, 500 g ai/ha, read-out: Plant response rating, Galium)
80: Plant response rating, Ryegrass, Italian ([14]; 125 g ai/ha)
60%: pest or weed control at 500 g/ha ([11]; Alopecurus myosuroides, post-emergence, 240 h, 500 g ai/ha, read-out: Plant response rating, Blackgrass) | pest or weed control at 500 g/ha ([13]; Echinochloa crus-galli, post-emergence, 240 h, 500 g ai/ha, read-out: Plant response rating, Barnyardgrass)
20%: pest or weed control at 500 g/ha ([8]; Lolium multiflorum, post-emergence, 240 h, 500 g ai/ha, read-out: Plant response rating, Ryegrass, Italian) | pest or weed control at 125 g/ha ([13]; Echinochloa crus-galli, post-emergence, 240 h, 125 g ai/ha, read-out: Plant response rating, Barnyardgrass)
95%: pest or weed control at 250 g/ha ([12]; Echinochloa crus-galli, 360 h, read-out: Plant response rating, Barnyardgrass (0 to 100 scale, 0 is no effect, 100 is complete control))
100%: pest or weed control at 500 g/ha (kochia (Kochia scoparia) [1]; Bassia scoparia, post-emergence, 240 h, 500 g ai/ha, read-out: Plant response rating, Kochia) | pest or weed control at 500 g/ha ([5]; Ambrosia artemisiifolia, post-emergence, 240 h, 500 g ai/ha, read-out: Plant response rating, Ragweed) | pest or weed control at 250 g/ha ([9]; Cyperus difformis, 360 h, read-out: Plant response rating, Sedge, Umbrella (0 to 100 scale, 0 is no effect, 100 is complete control)) | pest or weed control at 125 g/ha ([10]; Amaranthus retroflexus, post-emergence, 240 h, 125 g ai/ha, read-out: Plant response rating, Pigweed) | pest or weed control at 500 g/ha ([10]; Amaranthus retroflexus, post-emergence, 240 h, 500 g ai/ha, read-out: Plant response rating, Pigweed)
0%: Corn plant response rating (crop injury, 0 = no effect, 100 = complete kill) at 125 g/ha (corn (Zea mays); Zea mays, post-emergence, 240 h, 125 g ai/ha) | pest or weed control at 125 g/ha ([8]; Lolium multiflorum, post-emergence, 240 h, 125 g ai/ha, read-out: Plant response rating, Ryegrass, Italian) | plant injury at 250 g/ha (rice (Oryza sativa); Oryza sativa, 360 h, read-out: Plant response rating, Rice (0 to 100 scale, 0 is no effect, 100 is complete control)) | pest or weed control at 125 g/ha ([11]; Alopecurus myosuroides, post-emergence, 240 h, 125 g ai/ha, read-out: Plant response rating, Blackgrass) | plant injury at 125 g/ha ([16]; Triticum aestivum, post-emergence, 240 h, 125 g ai/ha, read-out: Plant response rating, Wheat) | plant injury at 500 g/ha ([16]; Triticum aestivum, post-emergence, 240 h, 500 g ai/ha, read-out: Plant response rating, Wheat)
100: Plant response rating, Barnyardgrass ([2]; 500 g ai/ha) | Plant response rating, Kochia (kochia (Kochia scoparia) [4]; 125 g ai/ha) | Plant response rating, Kochia (kochia (Kochia scoparia) [4]; 500 g ai/ha) | Plant response rating, Pigweed ([7]; 125 g ai/ha) | Plant response rating, Pigweed ([7]; 500 g ai/ha) | Plant response rating, Ragweed ([17]; 125 g ai/ha) | Plant response rating, Ragweed ([17]; 500 g ai/ha) | Plant response rating, Foxtail, Giant ([18]; 500 g ai/ha)
90%: pest or weed control at 125 g/ha (kochia (Kochia scoparia) [1]; Bassia scoparia, post-emergence, 240 h, 125 g ai/ha, read-out: Plant response rating, Kochia)

C[C@H](Nc1ncc(C(F)(F)F)c(N)n1)c1cc2ccccc2s1 [Compound 5]
0: Plant response rating, Kochia (kochia (Kochia scoparia) [1]; 125 g ai/ha) | Plant response rating, Barnyardgrass ([2]; 125 g ai/ha) | Plant response rating, Barnyardgrass ([2]; 500 g ai/ha) | Plant response rating, Foxtail, Giant ([3]; 125 g ai/ha) | Plant response rating, Foxtail, Giant ([3]; 500 g ai/ha) | Plant response rating, Corn (corn (Zea mays); 500 g ai/ha) | Plant response rating, Kochia (kochia (Kochia scoparia) [4]; 125 g ai/ha) | Plant response rating, Kochia (kochia (Kochia scoparia) [4]; 500 g ai/ha) | Plant response rating, Ragweed ([5]; 125 g ai/ha) | Plant response rating, Ducksalad (0 to 100 scale, 0 is no effect, 100 is complete control) [6] | Plant response rating, Pigweed ([7]; 125 g ai/ha) | Plant response rating, Ryegrass, Italian ([8]; 125 g ai/ha) | Plant response rating, Ryegrass, Italian ([8]; 500 g ai/ha) | Plant response rating, Rice (0 to 100 scale, 0 is no effect, 100 is complete control) (rice (Oryza sativa)) | Plant response rating, Sedge, Umbrella (0 to 100 scale, 0 is no effect, 100 is complete control) [9] | Plant response rating, Blackgrass ([11]; 125 g ai/ha) | Plant response rating, Blackgrass ([11]; 500 g ai/ha) | Plant response rating, Barnyardgrass (0 to 100 scale, 0 is no effect, 100 is complete control) [12] | Plant response rating, Barnyardgrass ([13]; 125 g ai/ha) | Plant response rating, Barnyardgrass ([13]; 500 g ai/ha) | Plant response rating, Galium ([15]; 125 g ai/ha) | Plant response rating, Wheat ([16]; 125 g ai/ha) | Plant response rating, Wheat ([16]; 500 g ai/ha) | Plant response rating, Ragweed ([17]; 125 g ai/ha) | Plant response rating, Ragweed ([17]; 500 g ai/ha) | Plant response rating, Foxtail, Giant ([18]; 125 g ai/ha)
20: Plant response rating, Kochia (kochia (Kochia scoparia) [1]; 500 g ai/ha) | Plant response rating, Pigweed ([10]; 125 g ai/ha) | Plant response rating, Ryegrass, Italian ([14]; 125 g ai/ha) | Plant response rating, Ryegrass, Italian ([14]; 500 g ai/ha)
40: Plant response rating, Galium ([15]; 500 g ai/ha)
90: Plant response rating, Pigweed ([10]; 500 g ai/ha)
50: Plant response rating, Pigweed ([7]; 500 g ai/ha)
10: Plant response rating, Corn (corn (Zea mays); 125 g ai/ha) | Plant response rating, Ragweed ([5]; 500 g ai/ha) | Plant response rating, Foxtail, Giant ([18]; 500 g ai/ha)
